{"source": "paper PMC5218480", "about": "(PLoS ONE, 2017)", "system": "MV-4-11 cells", "assay": "Gene expression microarray analysis (Affymetrix PrimeView) and GSEA", "format": "cell-based, human", "parameters": "RFU PODN (11730768_x_at) / Fold change /veh PODN (11730768_x_at) / RFU LINC00158 (11744669_a_at) / Fold change /veh LINC00158 (11744669_a_at) / RFU DUSP10 (11751237_a_at) / Fold change /veh DUSP10 (11751237_a_at) / RFU ID3 (11757404_x_at) / Fold change /veh ID3 (11757404_x_at) / RFU PLEKHG5 (11737974_s_at) / Fold change /veh PLEKHG5 (11737974_s_at) / RFU LRRC4B (11730491_at) / Fold change /veh LRRC4B (11730491_at) / RFU GIMAP4 (11747438_a_at) / Fold change /veh GIMAP4 (11747438_a_at) / RFU KRT8 (11758183_x_at) / Fold change /veh KRT8 (11758183_x_at) / RFU CNN1 (11734310_a_at) / Fold change /veh CNN1 (11734310_a_at) / RFU VPS37D (11726825_at) / Fold change /veh VPS37D (11726825_at) / RFU C10orf10 (11716522_x_at) / Fold change /veh C10orf10 (11716522_x_at) / RFU KIR2DL2 /// KIR2DL4 /// KIR2DL5A /// KIR2DL5B /// KIR2DS1 /// KIR2DS2 /// KIR2DS3 /// KIR2DS4 /// KIR3DL3 /// KIR3DL3 /// KIR3DS1 (11738374_at) / Fold change /veh KIR2DL2 /// KIR2DL4 /// KIR2DL5A /// KIR2DL5B /// KIR2DS1 /// KIR2DS2 /// KIR2DS3 /// KIR2DS4 /// KIR3DL3 /// KIR3DL3 /// KIR3DS1 (11738374_at) / RFU C1QL1 (11718748_at) / Fold change /veh C1QL1 (11718748_at) / RFU TMPRSS4 (11747572_a_at) / Fold change /veh TMPRSS4 (11747572_a_at) / RFU HAMP (11756126_x_at) / Fold change /veh HAMP (11756126_x_at) / RFU RNFT2 (11725882_a_at) / Fold change /veh RNFT2 (11725882_a_at) / RFU NR4A2 (11747474_a_at) / Fold change /veh NR4A2 (11747474_a_at) / RFU ABCC12 (11746883_a_at) / Fold change /veh ABCC12 (11746883_a_at) / RFU TMEM136 (11760407_x_at) / Fold change /veh TMEM136 (11760407_x_at) / RFU CLDN22 /// WWC2 (11732394_at) / Fold change /veh CLDN22 /// WWC2 (11732394_at) / RFU HLA-DPB1 (11760878_x_at) / Fold change /veh HLA-DPB1 (11760878_x_at) / RFU SPINT1 (11716480_a_at) / Fold change /veh SPINT1 (11716480_a_at) / RFU GAP43 (11754022_s_at) / Fold change /veh GAP43 (11754022_s_at) / RFU A4GNT (11735810_at) / Fold change /veh A4GNT (11735810_at) / RFU PRB3 (11715151_x_at) / Fold change /veh PRB3 (11715151_x_at) / RFU TUBB4B (11761932_at) / Fold change /veh TUBB4B (11761932_at) / RFU CAPN14 (11732068_a_at) / Fold change /veh CAPN14 (11732068_a_at) / RFU TMCC2 (11721928_a_at) / Fold change /veh TMCC2 (11721928_a_at) / RFU IRGQ (11745062_a_at) / Fold change /veh IRGQ (11745062_a_at) / RFU FAM174B (11720279_a_at) / Fold change /veh FAM174B (11720279_a_at) / RFU TMPRSS4 (11748680_a_at) / Fold change /veh TMPRSS4 (11748680_a_at) / RFU FAM212B (11763350_a_at) / Fold change /veh FAM212B (11763350_a_at) / RFU PLEKHG5 (11743358_a_at) / Fold change /veh PLEKHG5 (11743358_a_at) / RFU ZSCAN30 (11745921_a_at) / Fold change /veh ZSCAN30 (11745921_a_at) / RFU CMKLR1 (11741424_a_at) / Fold change /veh CMKLR1 (11741424_a_at) / RFU LOC101060620 /// MAPK8IP1 (11723275_at) / Fold change /veh LOC101060620 /// MAPK8IP1 (11723275_at) / RFU SPTSSB (11747773_x_at) / Fold change /veh SPTSSB (11747773_x_at) / RFU PRSS12 (11739890_at) / Fold change /veh PRSS12 (11739890_at) / RFU BIN1 (11741810_x_at) / Fold change /veh BIN1 (11741810_x_at) / RFU WNT11 (11732464_a_at) / Fold change /veh WNT11 (11732464_a_at) / RFU C10orf10 (11716521_a_at) / Fold change /veh C10orf10 (11716521_a_at) / RFU C5orf56 (11738089_at) / Fold change /veh C5orf56 (11738089_at) / RFU CYB561 (11721691_x_at) / Fold change /veh CYB561 (11721691_x_at) / RFU ANKRD19P (11752326_a_at) / Fold change /veh ANKRD19P (11752326_a_at) / RFU OR2T12 /// OR2T33 /// OR2T8 (11738714_s_at) / Fold change /veh OR2T12 /// OR2T33 /// OR2T8 (11738714_s_at) / RFU VCAN (11748164_a_at) / Fold change /veh VCAN (11748164_a_at) / RFU JSRP1 (11732532_at) / Fold change /veh JSRP1 (11732532_at) / RFU KRTAP10-11 (11738290_x_at) / Fold change /veh KRTAP10-11 (11738290_x_at) / RFU MYO3A (11730013_a_at) / Fold change /veh MYO3A (11730013_a_at) / RFU EBF3 (11725865_a_at) / Fold change /veh EBF3 (11725865_a_at) / RFU CAMK2N1 (11719241_x_at) / Fold change /veh CAMK2N1 (11719241_x_at) / RFU C5orf56 (11738088_a_at) / Fold change /veh C5orf56 (11738088_a_at) / RFU OLFML3 (11715873_a_at) / Fold change /veh OLFML3 (11715873_a_at) / RFU LOC100653217 /// NTM (11731650_a_at) / Fold change /veh LOC100653217 /// NTM (11731650_a_at) / RFU MAPK11 (11762145_a_at) / Fold change /veh MAPK11 (11762145_a_at) / RFU FIZ1 (11724087_x_at) / Fold change /veh FIZ1 (11724087_x_at) / RFU OASL (11726364_x_at) / Fold change /veh OASL (11726364_x_at) / RFU SOX15 (11748057_x_at) / Fold change /veh SOX15 (11748057_x_at) / RFU CD79A (11719716_a_at) / Fold change /veh CD79A (11719716_a_at) / RFU HIST1H1D (11736915_at) / Fold change /veh HIST1H1D (11736915_at) / RFU CASKIN2 (11723855_a_at) / Fold change /veh CASKIN2 (11723855_a_at) / RFU LOC730098 (11760151_x_at) / Fold change /veh LOC730098 (11760151_x_at) / RFU OR4N2 (11742367_at) / Fold change /veh OR4N2 (11742367_at) / RFU PRRT2 (11749266_a_at) / Fold change /veh PRRT2 (11749266_a_at) / RFU SNX32 (11753110_a_at) / Fold change /veh SNX32 (11753110_a_at) / RFU CDHR5 (11726645_a_at) / Fold change /veh CDHR5 (11726645_a_at) / RFU RCAN1 (11760418_a_at) / Fold change /veh RCAN1 (11760418_a_at) / RFU FAM167A (11723789_a_at) / Fold change /veh FAM167A (11723789_a_at) / RFU FAM26E (11764081_at) / Fold change /veh FAM26E (11764081_at) / RFU ISYNA1 (11749810_s_at) / Fold change /veh ISYNA1 (11749810_s_at) / RFU ACY1 (11761880_at) / Fold change /veh ACY1 (11761880_at) / RFU 11764098_at / Fold change /veh 11764098_at / RFU SAMD14 (11745864_x_at) / Fold change /veh SAMD14 (11745864_x_at) / RFU NPB (11741838_a_at) / Fold change /veh NPB (11741838_a_at) / RFU TMPRSS6 (11731388_a_at) / Fold change /veh TMPRSS6 (11731388_a_at) / RFU KRTAP10-2 (11738614_at) / Fold change /veh KRTAP10-2 (11738614_at) / RFU ARHGAP8 /// PRR5-ARHGAP8 (11727945_x_at) / Fold change /veh ARHGAP8 /// PRR5-ARHGAP8 (11727945_x_at) / RFU KRTAP5-7 /// NADSYN1 (11734609_at) / Fold change /veh KRTAP5-7 /// NADSYN1 (11734609_at) / RFU RASL12 (11751679_a_at) / Fold change /veh RASL12 (11751679_a_at) / RFU CDKN2B (11736163_a_at) / Fold change /veh CDKN2B (11736163_a_at) / RFU PRF1 (11729649_at) / Fold change /veh PRF1 (11729649_at) / RFU, ZNF638 /// ZNF638-IT1 / Fold change vs veh, ZNF638 /// ZNF638-IT1 / RFU, PANK3 / Fold change vs veh, PANK3 / RFU, SH3YL1 / Fold change vs veh, SH3YL1 / RFU, ZEB2 / Fold change vs veh, ZEB2 / RFU, NRIP1 / Fold change vs veh, NRIP1 / RFU, PTTG1IP / Fold change vs veh, PTTG1IP / RFU, CAPN2 / Fold change vs veh, CAPN2 / RFU, MED14 / Fold change vs veh, MED14 / RFU, SNORA58 / Fold change vs veh, SNORA58 / RFU, C1orf63 / Fold change vs veh, C1orf63 / RFU, LRRFIP1 / Fold change vs veh, LRRFIP1 / RFU, NDUFAF7 / Fold change vs veh, NDUFAF7 / RFU, SLC12A2 / Fold change vs veh, SLC12A2 / RFU, IBTK / Fold change vs veh, IBTK / RFU, ESF1 / Fold change vs veh, ESF1 / Fold change vs veh, TMEM50B / RFU, TAOK1 / Fold change vs veh, TAOK1 / RFU, ACBD3 / Fold change vs veh, ACBD3 / RFU, TMA16 / Fold change vs veh, TMA16 / RFU, RWDD3 / Fold change vs veh, RWDD3 / RFU, BCAT1 / Fold change vs veh, BCAT1 / RFU, EDEM3 / Fold change vs veh, EDEM3 / RFU, TMEM33 / Fold change vs veh, TMEM33 / RFU, WDR75 / Fold change vs veh, WDR75 / RFU, AHCTF1 / Fold change vs veh, AHCTF1 / RFU, TFRC / Fold change vs veh, TFRC / RFU, ZDHHC17 / Fold change vs veh, ZDHHC17 / RFU, NOM1 / Fold change vs veh, NOM1 / RFU, ARL8B / Fold change vs veh, ARL8B / RFU, ZBTB11 / Fold change vs veh, ZBTB11 / RFU, TAMM41 / Fold change vs veh, TAMM41 / RFU, KIAA1704 /// LOC100996395 / Fold change vs veh, KIAA1704 /// LOC100996395 / RFU, ING1 / Fold change vs veh, ING1 / RFU, TRMT61B / Fold change vs veh, TRMT61B / RFU, FUBP3 / Fold change vs veh, FUBP3 / RFU, TP53 / Fold change vs veh, TP53 / RFU, TNKS2 / Fold change vs veh, TNKS2 / RFU, ZFP14 / Fold change vs veh, ZFP14 / RFU, ACTR2 / Fold change vs veh, ACTR2 / RFU, PPP3R1 / Fold change vs veh, PPP3R1 / RFU, PIK3R1 / Fold change vs veh, PIK3R1 / RFU, HNRNPA1 / Fold change vs veh, HNRNPA1 / RFU, RNF170 / Fold change vs veh, RNF170 / RFU, ZNF28 / Fold change vs veh, ZNF28 / RFU, RNGTT / Fold change vs veh, RNGTT / RFU, OGT / Fold change vs veh, OGT / RFU, BRD1 / Fold change vs veh, BRD1 / RFU, MARS / Fold change vs veh, MARS / RFU, ZNF655 / Fold change vs veh, ZNF655 / RFU, FAHD1 / Fold change vs veh, FAHD1 / RFU, BDP1 / Fold change vs veh, BDP1 / RFU, LRRCC1 / Fold change vs veh, LRRCC1 / RFU, ARID1A / Fold change vs veh, ARID1A / RFU, ZNF146 / Fold change vs veh, ZNF146 / RFU, ZNF330 / Fold change vs veh, ZNF330 / RFU, GPN3 / Fold change vs veh, GPN3 / RFU, C9orf123 / Fold change vs veh, C9orf123 / RFU, N4BP2L2 / Fold change vs veh, N4BP2L2 / RFU, ARFIP1 / Fold change vs veh, ARFIP1 / RFU, FAM179B / Fold change vs veh, FAM179B / RFU, BCL10 / Fold change vs veh, BCL10 / RFU, UHRF1BP1L / Fold change vs veh, UHRF1BP1L / RFU, BET1 / Fold change vs veh, BET1 / RFU, CNOT2 / Fold change vs veh, CNOT2 / RFU, ZNF268 / Fold change vs veh, ZNF268 / Fold change vs veh, ZNF507 / RFU, DGCR2 / Fold change vs veh, DGCR2 / RFU, WDSUB1 / Fold change vs veh, WDSUB1 / Fold change vs veh, HSP90B1 /// MIR3652 / RFU, ADSS / Fold change vs veh, ADSS / RFU, GK / Fold change vs veh, GK / RFU, ZNF148 / Fold change vs veh, ZNF148 / RFU, TAF9 / Fold change vs veh, TAF9 / RFU, SLC1A5 / Fold change vs veh, SLC1A5 / RFU, SLMO2 / Fold change vs veh, SLMO2 / RFU, ABCC4 / Fold change vs veh, ABCC4 / RFU, LOC101060439 /// RAP1B / Fold change vs veh, LOC101060439 /// RAP1B / RFU, RFX7 / Fold change vs veh, RFX7 / RFU, GTPBP10 / Fold change vs veh, GTPBP10 / RFU, CNEP1R1 / Fold change vs veh, CNEP1R1 / RFU, BIVM-ERCC5 /// ERCC5 / Fold change vs veh, BIVM-ERCC5 /// ERCC5 / RFU, ILF3 / Fold change vs veh, ILF3 / RFU 11762660_at / Fold change /veh 11762660_at / RFU VCAN (11757783_s_at) / Fold change /veh VCAN (11757783_s_at) / RFU DDX43 (11728927_at) / Fold change /veh DDX43 (11728927_at) / RFU KRT8 (11758188_x_at) / Fold change /veh KRT8 (11758188_x_at) / RFU NKD1 (11759106_at) / Fold change /veh NKD1 (11759106_at) / RFU SRD5A1 (11742802_a_at) / Fold change /veh SRD5A1 (11742802_a_at) / RFU TPSAB1 /// TPSB2 (11721975_s_at) / Fold change /veh TPSAB1 /// TPSB2 (11721975_s_at) / RFU GSTM3 (11746129_a_at) / Fold change /veh GSTM3 (11746129_a_at) / RFU IL23R (11737362_x_at) / Fold change /veh IL23R (11737362_x_at) / RFU TMEM51 (11727254_a_at) / Fold change /veh TMEM51 (11727254_a_at) / RFU PIWIL2 (11732686_x_at) / Fold change /veh PIWIL2 (11732686_x_at) / RFU ORM1 (11744905_x_at) / Fold change /veh ORM1 (11744905_x_at) / RFU CCDC152 (11743942_at) / Fold change /veh CCDC152 (11743942_at) / RFU ECM1 (11717891_a_at) / Fold change /veh ECM1 (11717891_a_at) / RFU IL23R (11748794_a_at) / Fold change /veh IL23R (11748794_a_at) / RFU TNFAIP8L3 (11732012_x_at) / Fold change /veh TNFAIP8L3 (11732012_x_at) / RFU MBOAT4 (11741988_at) / Fold change /veh MBOAT4 (11741988_at) / RFU 11764193_at / Fold change /veh 11764193_at / RFU TMEM53 (11763286_at) / Fold change /veh TMEM53 (11763286_at) / RFU MAGEB2 (11727129_at) / Fold change /veh MAGEB2 (11727129_at) / RFU TMEM200A (11744735_a_at) / Fold change /veh TMEM200A (11744735_a_at) / RFU CCDC152 (11751479_a_at) / Fold change /veh CCDC152 (11751479_a_at) / RFU FAM211A (11726209_a_at) / Fold change /veh FAM211A (11726209_a_at) / RFU RGS16 (11746705_a_at) / Fold change /veh RGS16 (11746705_a_at) / RFU VCAN (11755009_s_at) / Fold change /veh VCAN (11755009_s_at) / RFU RHOB (11743442_s_at) / Fold change /veh RHOB (11743442_s_at) / RFU RGS16 (11720943_a_at) / Fold change /veh RGS16 (11720943_a_at) / RFU RGS16 (11720944_at) / Fold change /veh RGS16 (11720944_at) / RFU, VPS4B / Fold change vs veh, VPS4B / RFU, CREB1 / Fold change vs veh, CREB1 / RFU, DNAJC13 / Fold change vs veh, DNAJC13 / RFU, GNAQ / Fold change vs veh, GNAQ / RFU, CDK5R1 / Fold change vs veh, CDK5R1 / RFU, ZRANB3 / Fold change vs veh, ZRANB3 / RFU, CUL4A / Fold change vs veh, CUL4A / RFU, CCNY / Fold change vs veh, CCNY / RFU, UFL1 / Fold change vs veh, UFL1 / RFU, COG3 / Fold change vs veh, COG3 / RFU, DIAPH2 / Fold change vs veh, DIAPH2 / RFU, SKA2 / Fold change vs veh, SKA2 / RFU, AFF3 / Fold change vs veh, AFF3 / RFU, LMF1 / Fold change vs veh, LMF1 / RFU, IPO11 / Fold change vs veh, IPO11 / RFU, DFFB / Fold change vs veh, DFFB / RFU, FOXP1 / Fold change vs veh, FOXP1 / RFU, CARD8 / Fold change vs veh, CARD8 / RFU, STRN3 / Fold change vs veh, STRN3 / RFU, ADK / Fold change vs veh, ADK / RFU, RASSF2 / Fold change vs veh, RASSF2 / RFU, WIPF1 / Fold change vs veh, WIPF1 / RFU, LARP1B / Fold change vs veh, LARP1B / RFU, RASA1 / Fold change vs veh, RASA1 / RFU, RB1 / Fold change vs veh, RB1 / RFU, PPFIA1 / Fold change vs veh, PPFIA1 / RFU, MAT2A / Fold change vs veh, MAT2A / RFU, CCT5 / Fold change vs veh, CCT5 / RFU, WDR92 / Fold change vs veh, WDR92 / RFU, CUX1 / Fold change vs veh, CUX1 / RFU, TTC7A / Fold change vs veh, TTC7A / RFU, TMEM135 / Fold change vs veh, TMEM135 / RFU, DEPTOR / Fold change vs veh, DEPTOR / RFU, CPM / Fold change vs veh, CPM / RFU, DNAJB6 / Fold change vs veh, DNAJB6 / RFU, CACNA2D3 / Fold change vs veh, CACNA2D3 / RFU, DTX4 / Fold change vs veh, DTX4 / RFU, TFCP2 / Fold change vs veh, TFCP2 / RFU, GMCL1 /// GMCL1P1 / Fold change vs veh, GMCL1 /// GMCL1P1 / RFU, AEBP2 / Fold change vs veh, AEBP2 / RFU, SNHG1 /// SNORD22 /// SNORD25 /// SNORD26 /// SNORD27 /// SNORD28 /// SNORD29 /// SNORD31 / Fold change vs veh, SNHG1 /// SNORD22 /// SNORD25 /// SNORD26 /// SNORD27 /// SNORD28 /// SNORD29 /// SNORD31 / Fold change (Aza/veh), C12orf56 (ProbeSet 11735607_a_at) / Fold change (ACY-1035/veh), C12orf56 (ProbeSet 11735607_a_at) / Fold change (Aza/veh), FGFR1OP (ProbeSet 11751329_s_at) / Fold change (ACY-1035/veh), FGFR1OP (ProbeSet 11751329_s_at) / Fold change (Aza/veh), VPS36 (ProbeSet 11739960_a_at) / Fold change (ACY-1035/veh), VPS36 (ProbeSet 11739960_a_at) / RFU SYPL1 (11715823_x_at) / Fold change /veh SYPL1 (11715823_x_at) / RFU IGFBP7 (11715501_s_at) / Fold change /veh IGFBP7 (11715501_s_at) / RFU REEP3 (11722064_at) / Fold change /veh REEP3 (11722064_at) / RFU IGLL1 (11728026_x_at) / Fold change /veh IGLL1 (11728026_x_at): dose or concentration left out as unconfirmed", "conditions": "MV-4-11 cells, 48 hours"}
{"smiles": "Nc1ncn([C@@H]2O[C@H](CO)[C@@H](O)[C@H]2O)c(=O)n1", "note": "[azacitidine]", "values": [{"measurement": "RFU IGFBP7 (11715501_s_at)", "result": 202.56, "unit": "RFU"}]}
